Measured values reported in paper PMC11256326, “Discovery of Heparin Mimetic, Potent, and Selective Inhibitors of Human Clotting Factor XIIIa” (ACS Omega, 2024).

Biological target: T1, rTG-2 (recombinant human tissue transglutaminase-2) (Homo sapiens, UniProt P21980)
T1 construct: purchased Tocris Bioscience
T1 sequence (P21980 1-687): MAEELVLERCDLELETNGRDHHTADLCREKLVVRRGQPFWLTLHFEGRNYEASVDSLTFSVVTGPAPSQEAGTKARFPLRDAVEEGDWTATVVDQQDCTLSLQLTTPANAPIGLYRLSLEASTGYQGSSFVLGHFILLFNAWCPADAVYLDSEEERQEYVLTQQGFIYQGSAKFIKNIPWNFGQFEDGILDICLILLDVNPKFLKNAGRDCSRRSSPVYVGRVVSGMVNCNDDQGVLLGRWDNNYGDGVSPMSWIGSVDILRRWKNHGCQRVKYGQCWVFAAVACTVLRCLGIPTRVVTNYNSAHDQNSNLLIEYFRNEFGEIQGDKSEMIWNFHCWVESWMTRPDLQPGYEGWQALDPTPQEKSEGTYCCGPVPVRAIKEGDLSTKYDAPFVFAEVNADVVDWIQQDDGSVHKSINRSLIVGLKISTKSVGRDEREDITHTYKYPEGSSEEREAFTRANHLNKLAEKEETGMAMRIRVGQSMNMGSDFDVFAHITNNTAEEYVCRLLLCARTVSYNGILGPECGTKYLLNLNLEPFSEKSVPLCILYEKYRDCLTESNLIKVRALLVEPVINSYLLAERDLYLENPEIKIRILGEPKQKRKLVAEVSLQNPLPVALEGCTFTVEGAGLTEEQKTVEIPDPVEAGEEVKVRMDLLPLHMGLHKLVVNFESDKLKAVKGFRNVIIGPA
Assay: bisubstrate, fluorescence-based trans-glutamination assay with recombinant TG-2
Type: biochemical
Description: FXIIIa and TG-2 belong to the same transglutaminase superfamily, and they share similar protein folds with a sequence similarity of 34%. Although we believe that sulfonated heparin mimetics are less likely to distribute to peripheral tissues, we evaluated inhibitor 16′s potential to inhibit TG-2 (we used recombinant TG-2). […] Likewise, we studied the inhibition of papain, a related cysteine protease, by molecule 16.
Human plasma proteins such as FXIIIa, thrombin, factor Xa, and factor XIa were procured from Haematologic Technologies. Recombinant human TG-2 was sourced from Tocris Bioscience. Their activities were validated according to the supplier’s instructions. Chromogenic substrates for thrombin and factor Xa were acquired from Biomedica Diagnostics, while the factor XIa chromogenic substrate (S-2366) was obtained from Diapharma. Dithiothreitol, N,N-dimethylcasein, and dansylcadaverine were purchased from Sigma Aldrich. Stock solutions of thrombin and factor XIa were prepared in 50 mM Tris-HCl buffer, pH 7.4, containing 150 mM sodium chloride, 0.1% PEG8000, and 0.02% Tween80. The stock solution of factor Xa was prepared in 20 mM Tris-HCl buffer, pH 7.4, containing 100 mM sodium chloride, 0.1% PEG8000, 2.5 mM CaCl2, and 0.02% Tween80. The stock solutions of FXIIIa and rTG-2 were prepared in 50 mM Tris-HCl, 1 mM CaCl2, 100 mM sodium chloride, 0.02% Tween80, 0.1% PEG8000, and 2 mg/mL dimethylcasein. Papain and its chromogenic substrate (N-α-benzoyl-L-arginyl-4-nitroanilide) were obtained from Sigma Aldrich. Papain was prepared in 50 mM Tris-HCl buffer, pH 7.4, containing 100 mM NaCl, 100 mM DTT, 2.5 mM CaCl2, 0.1% PEG8000, and 0.02% Tween80. Human plasma for coagulation assays was obtained from George King Bio-Medica for the clotting assays. Thromboplastin-D (PT reagent), APTT reagent containing ellagic acid, and 0.025 M solution of CaCl2 were obtained from Thermo Fisher Scientific. Results were reproduced at least three times.
For tissue TG-2, a recombinant protein (rTG-2) was used in a bisubstrate, fluorescence-based trans-glutamination assay involving dansylcadaverine and N,N-dimethylcasein as substrates and under similar conditions used for human FXIIIa above. The activity of rTG-2 was monitored following the addition of 5 μL of dansylcadaverine (2 mM) by measuring the initial rate of increase in fluorescence emission (λEx. = 360 nm and λEm. = 490 nm). Relative residual rTG-2 activity at each concentration of inhibitor 16 was calculated from the ratio of rTG-2 activity in the presence and absence of the inhibitor. Logistic eq 1 was used to fit the concentration dependence of residual rTG-2 activity to obtain the IC50 and ΔY% of inhibition.

Nc1c(/N=N/c2ccc(S(=O)(=O)CCOS(=O)(=O)O)cc2)c(S(=O)(=O)O)cc2cc(S(=O)(=O)O)c(/N=N/c3ccc(S(=O)(=O)CCOS(=O)(=O)O)cc3)c(O)c12 [compound 16]
selectivity for FXIIIa over rTG-2: 9 fold
IC50 (recombinant TG-2): 18.1 ± 3.1 µM
rTG-2 HS (Hill slope) (recombinant TG-2): 2.2 ± 0.9
rTG-2 ΔY (recombinant TG-2): 86 ± 7%
